Results published in patent US20230364111A1 (priority 2020, published 2023).
Entries after “also recorded” stand apart in the source; their conditions may differ. Read-outs that look alike come from different tables or passages of the source.

Assays:
[1] = system: VeroE6/TMPRSS2 cells
[2] = system: SARS-CoV-2 Wk-521 strain; assay: SARS-CoV-2 infection assay, viral RNA in culture supernatant (VeroE6/TMPRSS2 cells); type: cell-based; conditions: for anti-SARS-CoV-2 activity: cell-based assay, VeroE6/TMPRSS2; for SARS-CoV-2 propagation in cultured cells: statement in words; for viral RNA in the culture supernatant: natural oxysterols up to 30 μM, semi-synthetic up to 15 μM; for production of viral RNA with signaling pathway inhibitors: 10 μM
[3] = system: SARS-CoV-2; assay: Time of addition assay, SARS-CoV-2 viral RNA; type: cell-based; conditions: 15 μM RDV, 15 μM CLQ, 10 μM Oxy210, 10 μM Oxy133
[4] = system: SARS-CoV-2; assay: SARS-CoV-2-induced cytopathic effect (CPE) in VeroE6/TMPRSS2 cells; type: cell-based; conditions: for virus-induced CPE: 48 h post-inoculation, 10 μM RDV, 30 μM cholesterol, 30 μM 7-KC, 10 μM Oxy133, 10 μM Oxy210, MOI 0.001; for SARS-CoV-2-induced cytopathic effect (CPE): remdesivir 20 uM, 7-ketocholesterol 40 uM, 27-hydroxycholesterol 20 uM
[5] = system: SARS-CoV-2; type: cell-based
[6] = system: SARS-CoV-2 (isolate USA WA1/2020); assay: SARS-CoV-2 infection of Calu-3 cells (dsRNA+ cells, automated microscopy); type: cell-based; conditions: Severe acute respiratory syndrome coronavirus 2, Calu-3, 48 h
Description: FIGS. 12A-12C depict dose-response curves for Oxy232. (FIG. 12A) Secreted viral RNA in the VeroE6 culture supernatant 24 h post-inoculation was quantified by real-time RT-PCR. Cell viability of Oxy232 treated cells evaluated with an MTT assay. (FIG. 12B) Secreted viral RNA of 3 SARS-CoV-2 strains in the VeroE6 culture supernatant 24 h post-inoculation was quantified by real-time RT-PCR. (FIG. 12C) Calu-3 (ATCC) cells were pretreated with Oxy232 for 2 hours prior to continuous infection with SARS-CoV-2 (isolate USA WA1/2020) at MOI=0.5. 48 h post-infection, cells were fixed, immune-strained, and imaged by automated microscopy for infection (dsRNA+ cells/total cell number) and cell number.
According to a previously published report (Ohashi et al., Identification of Anti-Severe Acute Respiratory Syndrome-Related Coronavirus 2 (SARS-CoV-2) Oxysterol Derivatives In Vitro. Int J Mol Sci. 2021; 22(6):3163. PMCID: PMC8003796) inventors have tested a collection of naturally occurring and semisynthetic oxysterol derivatives in a SARS-CoV-2 cell culture infection assay in VeroE6/TMPRSS2 cells. […] See, Ohashi et al., Int J Mol Sci. 2021; 22(6):3163 and Dittmar et al. Drug repurposing screens reveal cell-type-specific entry pathways and FDA-approved drugs active against SARS-Cov-2. Cell Rep. […] PMCID: PMC7985926. […] Without wishing to be bound by a theory, biological activities of oxysterols, including measures of cell viability, can heavily depend on in vitro assay conditions, such as the fetal bovine serum concentration or the duration of pretreatment with the compounds, among other factors, that may not translate to the in vivo safety of the compounds.

[7] = in vitro; conditions: human
[8] = in vitro; conditions: African green monkey
[9] = MTT assay, 24 h, VeroE6/TMPRSS2 cells
[10] = Severe acute respiratory syndrome coronavirus 2, VeroE6/TMPRSS2, 24 h, SARS-CoV-2 viral RNA in culture supernatant, 24 h post-inoculation, VeroE6/TMPRSS2 cells, read-out: IC90
[11] = Severe acute respiratory syndrome coronavirus 2, SARS-CoV-2 viral RNA in culture supernatant, 24 h post-inoculation, VeroE6/TMPRSS2 cells, read-out: IC50
[12] = SARS-CoV-2 viral RNA in culture supernatant, 24 h post-inoculation, VeroE6/TMPRSS2 cells, read-out: IC50
[13] = SARS-CoV-2 viral RNA in culture supernatant, 24 h post-inoculation, VeroE6/TMPRSS2 cells, read-out: IC90

CC(C)CC[C@@H](O)[C@@H](C)[C@H]1CC[C@H]2[C@@H]3CC=C4C[C@@H](O)CC[C@]4(C)[C@H]3CC[C@]12C [22(R)-OHC, 22(R)-hydroxycholesterol, reference compound]
CC50 [1, 9]: > 30 µM
IC90 [2, 10]: > 30 µM
IC50 [2, 11]: 13.2 µM
anti-SARS-CoV-2 activity [2]: modest anti-SARS-CoV-2 activities
SARS-CoV-2 propagation in cultured cells [2]: substantially inhibited SARS-CoV-2 propagation

CC(C)CC[C@H](O)[C@@H](C)[C@H]1CC[C@H]2[C@@H]3CC=C4C[C@@H](O)CC[C@]4(C)[C@H]3CC[C@]12C [22(S)-OHC, 22(S)-hydroxycholesterol, reference compound]
CC50 [1, 9]: > 30 µM
viral RNA in the culture supernatant ([2]; 24 h post-inoculation): did not show apparent reductions in viral RNA
IC90 [2, 10]: > 30 µM
IC50 [2, 11]: > 30 µM

CC(C)[C@@H](O)CC[C@@H](C)[C@H]1CC[C@H]2[C@@H]3CC=C4C[C@@H](O)CC[C@]4(C)[C@H]3CC[C@]12C [24(S)-OHC, 24(S)-hydroxycholesterol, reference compound]
CC50 [1, 9]: > 30 µM
IC90 [2, 10]: > 30 µM
IC50 [2, 11]: 1.3 µM
anti-SARS-CoV-2 activity [2]: modest anti-SARS-CoV-2 activities
SARS-CoV-2 propagation in cultured cells [2]: substantially inhibited SARS-CoV-2 propagation

CCN(CC)CCCC(C)Nc1ccnc2cc(Cl)ccc12 (stereo not shown) [CLQ, chloroquine, reference compound]
viral RNA, compound present at entry ([3]; 1 h inoculation plus 2 h): showed the most inhibitory effect

CC(C)CCC[C@@H](C)[C@H]1CC[C@H]2[C@@H]3CC=C4C[C@@H](O)CC[C@]4(C)[C@H]3CC[C@]12C [Cholesterol, reference compound]
virus-induced CPE [4]: but not cholesterol, reduced the SARS-CoV-2-induced CPE
CC50 [1, 9]: > 30 µM
viral RNA in the culture supernatant ([2]; 24 h post-inoculation): did not show apparent reductions in viral RNA
IC90 [2, 10]: > 30 µM
IC50 [2, 11]: > 30 µM

CS(=O)(=O)c1ccc(C(=O)Nc2ccc(Cl)c(-c3ccccn3)c2)c(Cl)c1 [GDC0449, reference compound]
production of viral RNA with signaling pathway inhibitors ([2]; 24 h post-inoculation): did not decrease the viral RNA levels; also recorded: lack of antiviral activity

CCCCCC[C@](C)(O)[C@H]1CC[C@H]2[C@@H]3C[C@H](O)[C@H]4C[C@@H](O)CC[C@]4(C)[C@H]3CC[C@@]21C [Oxy133, (3S,5S,6S,8R,9S,10R,13S,14S,17S)-17-((S)-2-hydroxyoctan-2-yl)-10,13-dimethyl hexadecahydro-1H-cyclopentalalphenanthrene-3,6-diol]
virus-induced CPE [4]: blocked when treated with Oxy210 but not Oxy133
CC50 [1, 9]: > 15 µM
SARS-CoV-2 propagation / spread of infection (viral N protein, immunofluorescence) [5]: blocked when treated with Oxy210 but not Oxy133
viral RNA, compound present during the whole life cycle ([3]; 24 h): but not the negative control, Oxy133, clearly reduced viral RNA levels
viral RNA, compound present post-entry ([3]; added 2 h post-inoculation for 21 h): but not the negative control, Oxy133, clearly reduced viral RNA levels
viral RNA in the culture supernatant ([2]; 24 h post-inoculation): did not show antiviral activity up to 15 μM
IC50 [2, 12]: > 15 µM
IC90 [2, 13]: > 15 µM

C[C@]12CC[C@H](O)C[C@@H]1CC[C@@H]1[C@@H]2CC[C@@]2(C)[C@H]1CC[C@@H]2[C@](C)(O)CCc1ccc(F)cc1 [Oxy186, (3S,5S,8R,9S,10S,13S,14S,17S)-17-((R)-4-(4-fluorophenyl)-2-hydroxybutan-2-yl)-10,13-dimethylhexadecahydro-1H-cyclopenta[a]phenanthren-3-ol]
SARS-CoV-2-induced cytopathic effect ([4]; oxy8 7.5 uM, oxy16 20 uM, oxy186 20 uM, oxy210 10 uM, 48 h, VeroE6/TMPRSS2): protected cells from cytopathic effect
CC50 [1, 9]: > 15 µM
cytotoxicity / cell viability ([1]; MTT assay, VeroE6/TMPRSS2 cells): No significant cytotoxicity
viral RNA in the culture supernatant ([2]; 24 h post-inoculation): reduced viral RNA level in a dose-dependent manner
IC90 [2, 10]: > 15 µM
IC50 [2, 11]: 7.4 µM
maximum reduction in viral RNA as compared to control ([2]; at 12 μM): 83%

CC(C)CCC[C@@H](C)[C@H]1CC[C@H]2[C@@H]3CC=C4[C@@H](O)[C@@H](O)CC[C@]4(C)[C@H]3CC[C@]12C [Oxy 4-beta-OHC, 4beta-hydroxysterol, reference compound]
CC50 [1, 9]: > 30 µM
viral RNA in the culture supernatant ([2]; 24 h post-inoculation): did not show apparent reductions in viral RNA
IC50 [2, 12]: > 30 µM
IC90 [2, 13]: > 30 µM

CC(C)CCC[C@@H](C)[C@H]1CC[C@H]2[C@@H]3C(=O)C=C4C[C@@H](O)CC[C@]4(C)[C@H]3CC[C@]12C [Oxy 7-KC, 7-ketocholesterol, reference compound]
virus-induced CPE [4]: reduced the SARS-CoV-2-induced CPE
SARS-CoV-2-induced cytopathic effect (CPE) ([4]; 48 h, VeroE6/TMPRSS2): inhibited SARS-CoV-2-induced cytopathic effect
CC50 [1, 9]: > 30 µM
SARS-CoV-2 propagation / spread of infection (viral N protein, immunofluorescence) [5]: reduced
IC90 [2, 10]: > 30 µM
IC50 [2, 11]: 14.5 µM
anti-SARS-CoV-2 activity [2]: modest anti-SARS-CoV-2 activities
SARS-CoV-2 propagation in cultured cells [2]: substantially inhibited SARS-CoV-2 propagation

C[C@@H](CO)CCC[C@@H](C)[C@H]1CC[C@H]2[C@@H]3CC=C4C[C@@H](O)CC[C@]4(C)[C@H]3CC[C@]12C [Oxy 27-OHC, 27-hydroxycholesterol, reference compound]
SARS-CoV-2-induced cytopathic effect (CPE) ([4]; 48 h, VeroE6/TMPRSS2): inhibited SARS-CoV-2-induced cytopathic effect
CC50 [1, 9]: > 30 µM
IC90 [2, 10]: > 30 µM
IC50 [2, 11]: 3.5 µM
anti-SARS-CoV-2 activity [2]: modest anti-SARS-CoV-2 activities
SARS-CoV-2 propagation in cultured cells [2]: substantially inhibited SARS-CoV-2 propagation

CCC(CC)COC(=O)[C@H](C)N[P@](=O)(OC[C@H]1O[C@@](C#N)(c2ccc3c(N)ncnn23)[C@H](O)[C@@H]1O)Oc1ccccc1 [RDV, remdesivir, reference compound]
IC50 ([6]; read-out: IC50 (Calu-3)): 0.08 µM
IC90 ([6]; read-out: IC90 (Calu-3)): 0.16 µM
CC50 ([1]; read-out: CC50 (VeroE6), VeroE6): > 10 µM
CC50 [7]: > 10 µM
IC50 ([2]; Severe acute respiratory syndrome coronavirus 2, Vero C1008, read-out: IC50 (VeroE6)): 1.5 µM
IC90 ([2]; Severe acute respiratory syndrome coronavirus 2, Vero C1008, read-out: IC90 (VeroE6), SARS-CoV-2, VeroE6): 1.5 µM
IC90 [2, 10]: 2.5 µM
IC50 [2, 11]: 1.5 µM
CC50 [8]: > 10 µM

NC(=O)c1ccc(-c2nc(-c3ccc4c(c3)OCO4)c(-c3ccccn3)[nH]2)cc1 [SB431542, reference compound]
production of viral RNA with signaling pathway inhibitors ([2]; 24 h post-inoculation): did not significantly inhibit the production of viral RNA; also recorded: lack of antiviral activity
